Results: publication PMC9090609 (RSC Advances, 2018)

System: E.c.-ALDC (acetolactate decarboxylase from Enterobacter cloacae)
Assay: circular dichroism at […] nm, formation of
Format: biochemical
Settings: pH 6, 30 °C; racemic substrate 5.3-53.4 mM

Km: 12.2 mM
SMILES: CC(=O)C(C)(O)C(=O)O (racemic) [(±)-AL]
